One test deals with HT-1080. The test is described as follows: Cytotoxicity against human HT1080 cells after 24 hrs by MTT assay. The format is functional. The settings on record: HT-1080, 24 h, read-out: ED50 (the source's name). (In general: Tetrazolium dyes change colour on reduction, which living cells bring about.)
Test [1] can be described thus: Cytotoxicity against mouse 26-L5 cells after 24 hrs by MTT assay. As to conditions: read-out: ED50 (the source's name). In kind it is functional.

≈ marks a conversion by molar mass, not a printed value.

As to `C=C(CO)[C@H]1Cc2cc(C(C)=O)c(O)cc2O1`, the EC50 worked out at 45.5 µg/mL (≈ 194 µM) with HT-1080 and 57.1 µg/mL (≈ 244 µM) in test [1].

In the case of `C=C1CC[C@@H]2[C@](C)(CCC[C@]2(C)C(=O)O)[C@H]1CC/C(C)=C/COC(C)=O`, the EC50 in the test on HT-1080 amounted to 70.1 µg/mL (≈ 193 µM); in test [1], 73.3 µg/mL (≈ 202 µM).

On to `CC(C)=CCc1cc(/C=C/C(=O)O)cc2c1OC(C)(C)C(O)C2` (stereo unspecified), for which the results for the EC50 (in the test on HT-1080; in test [1]) were 71.5 µg/mL (≈ 226 µM) and 77.1 µg/mL (≈ 244 µM), respectively.

With `COc1ccc([C@H]2Oc3cc(O)cc(O)c3C(=O)[C@@H]2O)cc1`, the EC50 with HT-1080 amounted to 27 µg/mL (≈ 89.2 µM); in test [1], 71 µg/mL (≈ 235 µM).

Consider `C=C1CC[C@@H]2[C@](C)(CCC[C@]2(C)C(=O)O)[C@H]1CC/C(C)=C/C(=O)OC`, for which the EC50 in the test with HT-1080 is 72.8 µg/mL (≈ 209 µM); in test [1] it was greater than 100 µg/mL.

For the molecule `C=C1CC[C@@H]2[C@](C)(CCC[C@]2(C)C(=O)O)[C@H]1CC/C(C)=C/C(=O)O` [AGATHIC ACID], the EC50 in the test on HT-1080 stood at 75.4 µg/mL (≈ 226 µM); in test [1], 95.9 µg/mL (≈ 287 µM).

For `CC(C)=CCc1cc(/C=C/C(=O)O)cc(CC=C(C)C)c1O` [ARTEPILLIN], the results for the EC50 (in the test on HT-1080; in test [1]) were 45.5 µg/mL (≈ 151 µM) and 59.3 µg/mL (≈ 197 µM), respectively.

For `CC(C)=CCc1cc(/C=C/C(=O)O)ccc1OC(=O)CCc1ccccc1` [BACCHARIN], the EC50 with HT-1080 stood at 25.9 µg/mL (≈ 71.2 µM); in test [1], 77.9 µg/mL (≈ 214 µM).

Take `COc1ccc(-c2oc3cc(O)c(OC)c(O)c3c(=O)c2O)cc1` [BETULETOL]: the EC50 in the test on HT-1080 came to 5.83 µg/mL (≈ 17.7 µM); in test [1], 4.95 µg/mL (≈ 15 µM).

As for `COc1cc(/C=C/C=O)ccc1O` [CONIFERYL ALDEHYDE], the EC50 with HT-1080 was determined as 4.05 µg/mL (≈ 22.7 µM); in test [1], 10.4 µg/mL (≈ 58.6 µM).

For `CC(C)=CCc1cc(/C=C/C(=O)O)cc2c1OC(C)(C)C=C2` [CULIFOLIN], the EC50 in the test with HT-1080 amounted to 46.9 µg/mL (≈ 157 µM); in test [1] it was 50.2 µg/mL (≈ 168 µM).

Take `C=C[C@](C)(O)CC[C@H]1C(=C)CC[C@@H]2[C@]1(C)CCC[C@]2(C)C(=O)O` [CUPRESSICACID]: the EC50 was 94.9 µg/mL (≈ 296 µM) in the test with HT-1080 and greater than 100 µg/mL in test [1].

Consider `COc1cc([C@H]2Oc3c(OC)cc(/C=C/COC(C)=O)cc3[C@@H]2COC(C)=O)ccc1O` [DIMERICCONIFERYLACETATE], for which the EC50 in the test on HT-1080 stood at 38.9 µg/mL (≈ 88 µM); in test [1], 39.9 µg/mL (≈ 90.1 µM).

Regarding `COc1cccc2c1C(=O)c1c(O)c3c(c(O)c1C2=O)C[C@@](O)(C(=O)CO)C[C@@H]3O[C@H]1C[C@H](N)[C@H](O)[C@H](C)O1.Cl` [DOXORUBICIN HYDROCHLORIDE], the EC50 in the test with HT-1080 was 0.034 µg/mL; in test [1], 0.015 µg/mL.

`COc1ccc(-c2oc3cc(O)cc(O)c3c(=O)c2OC)cc1` [ERMANIN]: the figures for the EC50 (with HT-1080; in test [1]) were 2.3 µg/mL (≈ 7.32 µM) and 7.64 µg/mL (≈ 24.3 µM), respectively.

For the molecule `C=C1CC[C@@H]2[C@](C)(CCC[C@]2(C)C(=O)O)[C@H]1CC/C(C)=C/CO` [ISOCUPRESSIC ACID], the EC50 in the test on HT-1080 was 72.9 µg/mL (≈ 228 µM); in test [1] it was 63.5 µg/mL (≈ 198 µM).

Regarding `COc1ccc(-c2oc3cc(O)cc(O)c3c(=O)c2O)cc1` [KAEMPFERIDE], the EC50 was 2.91 µg/mL (≈ 9.69 µM) with HT-1080 and 5.95 µg/mL (≈ 19.8 µM) in test [1].

In the case of `C=C(C)[C@H]1Cc2cc(C(C)=O)ccc2O1` [TREMETONE], the EC50 came out at 57.4 µg/mL (≈ 284 µM) with HT-1080 and 58.1 µg/mL (≈ 287 µM) in test [1].

Values taken from ChEMBL document CHEMBL1151290, “Chemical constituents of Brazilian propolis and their cytotoxic activities” (1998).
